Common to all, as to format: biochemical
Experiment [1] concerns alternative pathway of complement (ZAS activated). Briefly: In vitro complement activation of human serum by Zymosan A (ZAS), comparison of meglumine analogues. The conditions noted are these: FIG. 6. Here is the method:
(§1) A method for investigation of the ability of different agents to activate the complement system in vitro is described. Briefly, human serum is exposed to the different agents for 30 min at 37Ec. The activation is stopped by placing the samples in an ice-water bath and immediately add cold EDTA-solution at a final concentration of 15 mM. The latter stops further activation by chelating calcium and magnesium ions. The degree of activation is subsequently determined by using commercially available enzyme immunoassays (EIA) for determination of specific complement activation products. In these experiments C3a-desArg or SC5b-9 have been used, representing early pathway activation and terminal pathway activation respectively.
In order to investigate and compare the inhibitory effects on in vitro complement activation of other compounds with structural resemblance to meglumine (N-methyl-D-glucamine), a new study was performed. The new test substances chosen were N-methyl-mannosamine, 3-methylamino-1,2-propanediol and 2-(methylamino)ethanol.
Human serum was exposed to Zymosan A (ZAS), a strong activator of the alternative pathway of complement, at three different concentrations (5, 2 and 1 mg/mL serum). The complement activation induced by ZAS alone was compared with that obtained when adding the different test substances at two different concentrations to the ZAS-activated serum. In addition to the three chosen test substances meglumine was included for comparison.
To investigate the inhibitory effects of the test substances at a concentration corresponding to what is given of meglumine when injecting contrast agents such as Hexabrix, a concentration of 5.3 mg/mL serum was used. […] Complement activation induced by ZAS both at 2 and 1 mg/mL, was inhibited by meglumine, 3-methylamino-1,2-propanediol and 2-(methylamino)-ethanol. […] It should be noted that although the concentration of ZAS was reduced, the complement activation obtained was much higher than what would be expected in vivo. Thus meglumine, 3-methylamino-1,2-propanediol and 2-(methylamino)-ethanol seem to be very effective in controlling complement activation.

The subject of experiment [2] is classical pathway of complement (heat aggregated IgG activated, SC5b-9). The experiment is described as follows: In vitro complement activation by heat aggregated IgG in human serum, SC5b-9 EIA. The conditions noted are these: heat aggregated IgG 5 mg/mL serum, meglumine 390 mg/mL, FIG. 5. As for the experimental part:
as §1
(§2) The alternative and classical pathways represent the main ways of activating the complement system. The ability of meglumine to inhibit these pathways were investigated by using well known activators, Zymosan A (alternative pathway activator) and heat aggregated IgG (classical pathway activator). Zymosan A at 10 mg/mL serum or Zymosan A added meglumine at a final concentration of 39% (w/v) (390 mg/mL) was added to human serum and incubated for 1 hour at 37^EC on a vial roller. To obtain heat aggregated IgG, rabbit IgG at 30 mg/mL was incubated for 30 min at 65EC on a vial roller. […] The samples were analysed for SC5b-9. […]

The subject of experiment [3] is coagulation system (extrinsic pathway). Briefly: Prothrombin time test (commercial). As for the experimental part:
(§3) As the body cascade systems are connected, the effects of meglumine on the coagulation system were investigated, by using commercial tests for prothrombin time (extrinsic pathway) and partial activated thromboplastin time (intrinsic pathway). Briefly, meglumine was added to the test systems at final concentrations of 4 mg/mL and 25 mg/mL. In the prothrombin time test meglumine increased the coagulation time by 20.5 and 72.7 seconds respectively. In the partial activated thromboplastin time test the coagulation time was increased by 6.2 and 117.9 seconds respectively. The control plasma heparin, supplied with the kit, increased the coagulation time by 36.4 seconds compared with normal plasma. Meglumine seems to prolong the coagulation time in a concentration dependent way, exceeding the time obtained for heparin plasma at the highest concentration used.

The subject of experiment [4] is coagulation system (intrinsic pathway). The experiment is described as follows: Partial activated thromboplastin time test (commercial). Here is the method:
as §3

Experiment [5] deals with complement system (early pathway activation, C3a-desArg). Briefly: In vitro complement activation by X-ray contrast agents in human serum, C3a-desArg EIA. The conditions noted are these: for inhibition of complement activation induced by Visipaque: substance added to Visipaque, human serum. As for the experimental part: A method for investigation of the ability of different agents to activate the complement system in vitro is described. Briefly, human serum is exposed to the different agents for 30 min at 37Ec. The activation is stopped by placing the samples in an ice-water bath and immediately add cold EDTA-solution at a final concentration of 15 mM. The latter stops further activation by chelating calcium and magnesium ions. The degree of activation is subsequently determined by using commercially available enzyme immunoassays (EIA) for determination of specific complement activation products. In these experiments C3a-desArg or SC5b-9 have been used, representing early pathway activation and terminal pathway activation respectively. The concentrations of contrast agents used in vitro in these experiments is based on the following assumptions: One of the applied clinical doses (ACD) used in vivo is 150 mL Visipaque at a concentration of 320 mg I/mL. For a person of 70 kg with a blood volume of about 5.5 L and a plasma fraction of about 3.5 L, the ACD corresponds to 13.7 mg I/mL serum in the test system. Five times this concentration (68.5 mgI/mL serum) was used for all contrast agents to cover maximum blood concentration immediately after bolus injection of the substances. Hexabrix and Visipaque with concentrations of 320 mg I/mL and phosphate buffered saline (at an equal volume) were added to human serum. Subsequently in vitro complement activation was performed as described previously followed by the determination of C3a-desArg. […] In order to investigate the effect of meglumine on complement activation, meglumine at different concentrations were added to Visipaque and in vitro complement activation was performed followed by determination of C3a-desArg. […] An expanded concentration response experiment (tighter concentration range) was subsequently performed. Ten concentrations of meglumine ranging from 0–18% (w/w) of the iodine content in Visipaque were used. […] The effects of meglumine (39% w/w of mg I/ml) on other non-ionic x-ray contrast agents were investigated. Iopamidol, Omnipaque, Ultravist and Visipaque were added to human serum at a final concentration of 68.5 mg I/mL. Subsequently in vitro complement activation was performed, followed by determination of C3a-desArg as previously described in the section “In vitro complement activation” and in Example 1.

For experiment [6], the system named is alternative pathway of complement (Zymosan A activated, SC5b-9). The experiment is described as follows: In vitro complement activation by Zymosan A in human serum, SC5b-9 EIA. The conditions noted are these: Zymosan A 10 mg/mL serum, meglumine 390 mg/mL, 1 hour 37 C, FIG. 4. As for the experimental part:
as §1, §2

[7] abbreviates: ZAS 5 mg/mL serum, test substance 390 mg/mL.
Setting [8] is: ZAS 2 and 1 mg/mL serum, test substance 5.3 mg/mL serum.

From US7060731B2, “Use of amines” (Amersham Health AS, priority 2000, dated 2006) come the findings set out here.

For the molecule `CNCCO` [2-(methylamino)-ethanol], the “inhibition of in vitro complement activation induced by ZAS” value (shortened to “inhibition … by ZAS”) in experiment [1] (setting [7]) and in experiment [1] (setting [8]) was “inhibited” each time.
In the case of `CNC[C@H](O)[C@@H](O)[C@H](O)[C@H](O)CO` [meglumine, N-methyl-D-glucamine], the “inhibition … by ZAS” value in experiment [1] (setting [7]) and in experiment [1] (setting [8]) was “inhibited” throughout. Besides, the “inhibition of classical pathway activation of complement (SC5b-9)” value in experiment [2] is “inhibited”. For the same molecule, the “increase of coagulation time, prothrombin time test” value was 20.5 s in experiment [3] (final concentration 4 mg/mL) and 72.7 s in experiment [3] (final concentration 25 mg/mL). The figures for the “increase of coagulation time, partial activated thromboplastin time test” value in experiment [4] (final concentration 4 mg/mL) and in experiment [4] (final concentration 25 mg/mL) were 6.2 s and 117.9 s, respectively. Moreover, in experiment [5] (Visipaque with meglumine (pH 11) vs adjusted with HCl to pH 7.4, FIG. 3), the “inhibition of Visipaque-induced complement activation after pH adjustment” value is listed as “not due to the high pH”. For the same molecule, the “meglumine concentration at which an inhibitory effect was observed” value in experiment [5] (meglumine 0–32.5% added to Visipaque, C3a-desArg, FIG. 1) is 8–32.5 % (w/w) of the iodine content in Visipaque. Further, in experiment [5] (meglumine 39% w/w of mg I/ml, Iopamidol, Omnipaque, Ultravist and Visipaque at 68.5 mg I/mL serum, FIG. 7), the “inhibition of in vitro complement activation by non-ionic contrast agents (C3a-desArg)” value is recorded as “inhibited”. Also, the “inhibition of complement activation induced by Visipaque” value in experiment [5] (C3a-desArg) is listed as “abolished the complement activation”. In addition, in experiment [5] (ten concentrations 0–18% (w/w) of iodine content in Visipaque, C3a-desArg, FIG. 2), the “lowest concentration of meglumine able to inhibit the complement activation” value is recorded as 6 % of the iodine content. Also, the “inhibition of alternative pathway activation of complement (SC5b-9)” value in experiment [6] is reported as “inhibited”.
With `OC[C@@H](O)[C@@H](O)[C@H](O)[C@H](O)CO` [Mannitol, reference compound], the “inhibition of complement activation induced by Visipaque” value in experiment [5] (C3a-desArg) is listed as “no inhibitory effects”.
In the case of `CN[C@@H]1C(O)O[C@H](CO)[C@@H](O)[C@@H]1O` (some centres unmarked) [N-methyl-mannosamine], the “inhibition … by ZAS” value is recorded as “inhibited” in experiment [1] (setting [7]) and “weaker inhibitory effect” in experiment [1] (setting [8]).
Take `CNCC(O)CO` (centres unmarked) [3-methylamino-1,2-propanediol]: the “inhibition … by ZAS” value in experiment [1] (setting [7]) and in experiment [1] (setting [8]) was “inhibited” in each case.
